Results: the NIST ThermoML archive (doi:10.1016/j.tca.2008.12.007)
Numbers after ± are expanded uncertainties.

Conditions: 101.33 kPa, Liquid, Vibrating tube method

C1CCCNCC1 [azacycloheptane]
Conditions	mass density [kg/m3]
273.16 K	898.81 ± 0.3
273.66 K	898.36 ± 0.3
274.16 K	897.92 ± 0.3
274.66 K	897.48 ± 0.3
275.16 K	897.04 ± 0.3
275.66 K	896.6 ± 0.3
276.16 K	896.16 ± 0.3
276.66 K	895.72 ± 0.3
277.16 K	895.28 ± 0.3
277.66 K	894.84 ± 0.3
278.16 K	894.4 ± 0.3
278.66 K	893.96 ± 0.3
279.16 K	893.51 ± 0.3
279.66 K	893.07 ± 0.3
280.16 K	892.63 ± 0.3
280.66 K	892.19 ± 0.3
281.16 K	891.75 ± 0.3
281.66 K	891.31 ± 0.3
282.16 K	890.87 ± 0.3
282.66 K	890.42 ± 0.3
283.16 K	889.98 ± 0.3
283.66 K	889.54 ± 0.3
284.16 K	889.1 ± 0.3
284.66 K	888.66 ± 0.3
285.15 K	888.22 ± 0.3
285.66 K	887.77 ± 0.3
286.16 K	887.33 ± 0.3
286.66 K	886.89 ± 0.3
287.16 K	886.45 ± 0.3
287.66 K	886 ± 0.3
288.16 K	885.56 ± 0.3
288.66 K	885.12 ± 0.3
289.16 K	884.68 ± 0.3
289.66 K	884.23 ± 0.3
290.16 K	883.79 ± 0.3
290.66 K	883.35 ± 0.3
291.15 K	882.91 ± 0.3
291.65 K	882.47 ± 0.3
292.16 K	882.03 ± 0.3
292.65 K	881.58 ± 0.3
293.15 K	881.15 ± 0.3
293.65 K	880.71 ± 0.3
294.15 K	880.26 ± 0.3
294.65 K	879.82 ± 0.3
295.15 K	879.38 ± 0.3
295.65 K	878.94 ± 0.3
319.15 K	858.06 ± 0.3
319.65 K	857.61 ± 0.3
320.15 K	857.17 ± 0.3
320.65 K	856.72 ± 0.3
321.15 K	856.28 ± 0.3
321.65 K	855.83 ± 0.3
322.15 K	855.39 ± 0.3
322.65 K	854.94 ± 0.3
323.15 K	854.49 ± 0.3
323.65 K	854.05 ± 0.3
324.15 K	853.6 ± 0.3
324.65 K	853.15 ± 0.3
325.15 K	852.71 ± 0.3
325.66 K	852.26 ± 0.3
326.16 K	851.81 ± 0.3
326.66 K	851.37 ± 0.3
327.15 K	850.92 ± 0.3
327.66 K	850.47 ± 0.3
328.16 K	850.03 ± 0.3
328.66 K	849.58 ± 0.3
329.16 K	849.13 ± 0.3
329.66 K	848.69 ± 0.3
330.16 K	848.24 ± 0.3
330.65 K	847.79 ± 0.3
331.16 K	847.35 ± 0.3
331.66 K	846.9 ± 0.3
332.15 K	846.45 ± 0.3
332.66 K	846 ± 0.3
333.16 K	845.55 ± 0.3
333.65 K	845.11 ± 0.3
334.16 K	844.66 ± 0.3
334.65 K	844.21 ± 0.3
335.16 K	843.76 ± 0.3
335.65 K	843.31 ± 0.3
336.16 K	842.86 ± 0.3
336.66 K	842.42 ± 0.3
337.16 K	841.96 ± 0.3
337.66 K	841.52 ± 0.3
338.16 K	841.07 ± 0.3
338.66 K	840.62 ± 0.3
339.16 K	840.17 ± 0.3
339.66 K	839.72 ± 0.3
340.16 K	839.27 ± 0.3
340.66 K	838.82 ± 0.3
341.16 K	838.37 ± 0.3
341.65 K	837.92 ± 0.3
